Values of other authors in patent US20220142904A1, “A METHOD OF COLORING KERATINOUS MATERIAL COMPRISING THE USE OF AN ORGANOSILICON COMPOUND, A COLORING COMPOUND, A SEALING REAGENT, AND A MIXTURE OF SILICONES” (Henkel AG & Co. KGaA, priority 2019, published 2022).

Conditions: for solubility in water: 25° C.

Row | Compound | solubility in water | solubility in water (in words) (water at 25° C.)
1 | O=S(=O)([O-])c1ccc(N=Nc2c(O)ccc3ccccc23)cc1.[Na+] [Acid Orange 7, sodium salt of 4-[(2-hydroxy-1-naphthyl)azo]benzene sulphonate] | more than 7 g/L | 
2 | Nc1cc(S(=O)(=O)[O-])cc2cc(S(=O)(=O)[O-])c(N=Nc3ccccc3)c(O)c12.[Na+].[Na+] [Acid Red 33, disodium salt of 5-amino-4-hydroxy-3-(phenylazo)-naphthalene-2,7-disulphonate] | 2.5 mg/mL | 
3 | O=C([O-])c1c(Cl)c(Cl)c(Cl)c(Cl)c1-c1c2c(Br)cc(=O)c(Br)c-2oc2c(Br)c(O)cc(Br)c12.O=C([O-])c1c(Cl)c(Cl)c(Cl)c(Cl)c1-c1c2c(Br)cc(=O)c(Br)c-2oc2c(Br)c(O)cc(Br)c12.[Na+].[Na+] [Acid Red 92, disodium salt of 3,4,5,6-tetrachloro-2-(1,4,5,8-tetrabromo-6-hydroxy-3-oxoxanthen-9-yl)benzoic acid] | greater than 10 g/L | 
4 | O=C([O-])C1=NN(c2ccc(S(=O)(=O)[O-])cc2)C(=O)C1N=Nc1ccc(S(=O)(=O)[O-])cc1.[Na+].[Na+].[Na+] (centres unmarked) [Acid Yellow 23, trisodium salt of 4,5-dihydro-5-oxo-1-(4-sulfophenyl)-4-((4-sulfophenyl)azo)-1H-pyrazole-3-carboxylic acid] |  | highly soluble
5 | sodium salts of mono- and disulfonic acids of 2-(2-quinolyl)-1H-indene-1,3(2H)-dione [Acid Yellow 3] | 20 mg/mL | 
